This is an account of results in ChEMBL document CHEMBL1137419, “Identification of potent 5-pyrimidinyl-2-aminothiazole CDK4, 6 inhibitors with significant selectivity over CDK1, 2, 5, 7, and 9” (Bioorg Med Chem Lett, 2006).

The target in test [1] is Cyclin-dependent kinase 1 (Homo sapiens, UniProt P06493). Description: Inhibition of CDK1.
Test [2] deals with T1, Cyclin-dependent kinase 4 (Homo sapiens, UniProt P11802). Description: Inhibition of CDK4.
Test [3] concerns the target Cyclin-dependent kinase 2 (Homo sapiens, UniProt P24941). Description: Inhibition of CDK2.
The target of test [4] is Cyclin-dependent kinase 9 (Homo sapiens, UniProt P50750). Description: Inhibition of CDK9.
Sequence of Cyclin-dependent kinase 9 (P50750 whole entry): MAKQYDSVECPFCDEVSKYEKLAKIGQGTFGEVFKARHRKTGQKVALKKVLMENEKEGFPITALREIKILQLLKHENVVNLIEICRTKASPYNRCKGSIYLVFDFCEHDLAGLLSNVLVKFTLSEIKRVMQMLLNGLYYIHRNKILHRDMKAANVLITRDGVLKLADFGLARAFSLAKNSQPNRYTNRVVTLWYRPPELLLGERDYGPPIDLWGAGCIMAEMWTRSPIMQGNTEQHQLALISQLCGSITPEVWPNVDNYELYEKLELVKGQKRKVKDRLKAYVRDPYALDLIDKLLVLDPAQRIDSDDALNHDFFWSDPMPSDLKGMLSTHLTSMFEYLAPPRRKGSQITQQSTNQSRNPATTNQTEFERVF
Test [5] has as its target Cyclin-dependent kinase 5 (Homo sapiens, UniProt Q00535). Description: Inhibition of CDK5.
For test [6], the target named is Cyclin-dependent kinase 7 (Homo sapiens, UniProt P50613). The test is described as follows: Inhibition of CDK7.
Sequence of Cyclin-dependent kinase 7 (P50613 whole entry): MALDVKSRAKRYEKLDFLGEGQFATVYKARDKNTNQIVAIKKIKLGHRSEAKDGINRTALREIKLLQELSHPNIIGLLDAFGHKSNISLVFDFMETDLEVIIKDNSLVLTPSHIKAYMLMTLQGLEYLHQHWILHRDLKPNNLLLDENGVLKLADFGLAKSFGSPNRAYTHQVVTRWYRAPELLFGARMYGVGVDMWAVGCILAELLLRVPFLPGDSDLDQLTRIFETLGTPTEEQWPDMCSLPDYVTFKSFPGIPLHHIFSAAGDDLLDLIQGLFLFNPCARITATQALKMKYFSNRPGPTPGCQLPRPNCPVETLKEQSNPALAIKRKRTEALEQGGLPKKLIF
Test [7] has as its target T1, Cyclin-dependent kinase 4. Description: Inhibition of pRb phosphorylation at Ser780 residue by CDK4. Type of test: functional. To be noted: concentration not given here.
In test [8] the test system is EOL1. Description: Inhibition of pRb phosphorylation in Eol1 xenografted in nude rat at 510 nM, iv after 24 hrs. In kind it is functional, Homo sapiens.
Test [9] relates to EOL1. The test is described as follows: Cell cycle arrest in Eol1 cells by accumulation at G1 phase. In kind it is functional, Homo sapiens.
Test [10] has as its target Cyclin-dependent kinase 6 (Homo sapiens) (UniProt Q00534). The test is described as follows: Inhibition of pRb phosphorylation at Ser780 residue by CDK6. In kind it is functional. To be noted: concentration not given here.
Test [11] deals with EOL1. The test is described as follows: Inhibition of BrdU incorporation in Eol1 xenografted in nude rat at 510 nM, iv after 24 hrs. Type of test: functional, Homo sapiens.

Sequence of Cyclin-dependent kinase 1 (P06493 whole entry): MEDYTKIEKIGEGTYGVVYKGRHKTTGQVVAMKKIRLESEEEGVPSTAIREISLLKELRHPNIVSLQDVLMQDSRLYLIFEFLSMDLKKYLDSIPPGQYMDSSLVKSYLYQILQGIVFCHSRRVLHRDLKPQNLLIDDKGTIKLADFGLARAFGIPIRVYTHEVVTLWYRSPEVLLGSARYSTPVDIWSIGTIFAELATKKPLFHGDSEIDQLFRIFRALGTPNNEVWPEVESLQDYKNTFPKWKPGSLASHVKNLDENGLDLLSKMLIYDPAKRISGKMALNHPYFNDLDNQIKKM
T1 sequence (P11802 whole entry): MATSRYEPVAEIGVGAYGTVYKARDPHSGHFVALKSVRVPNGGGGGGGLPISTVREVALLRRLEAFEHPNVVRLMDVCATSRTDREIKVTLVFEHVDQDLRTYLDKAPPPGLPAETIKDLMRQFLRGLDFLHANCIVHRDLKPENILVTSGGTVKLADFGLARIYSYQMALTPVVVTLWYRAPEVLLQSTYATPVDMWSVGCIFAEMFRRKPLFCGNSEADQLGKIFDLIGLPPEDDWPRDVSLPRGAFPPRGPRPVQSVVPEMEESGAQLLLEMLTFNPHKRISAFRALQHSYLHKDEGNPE
Sequence of Cyclin-dependent kinase 5 (Q00535 whole entry): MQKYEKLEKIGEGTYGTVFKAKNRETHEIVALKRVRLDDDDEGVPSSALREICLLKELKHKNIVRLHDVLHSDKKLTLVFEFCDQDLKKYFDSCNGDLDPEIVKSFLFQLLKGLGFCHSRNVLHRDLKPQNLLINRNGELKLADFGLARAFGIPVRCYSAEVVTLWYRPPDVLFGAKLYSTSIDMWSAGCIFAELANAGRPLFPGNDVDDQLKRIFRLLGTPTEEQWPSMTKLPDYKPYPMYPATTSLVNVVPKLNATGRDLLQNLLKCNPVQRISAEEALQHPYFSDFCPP
Sequence of Cyclin-dependent kinase 6 (Homo sapiens) (Q00534 whole entry): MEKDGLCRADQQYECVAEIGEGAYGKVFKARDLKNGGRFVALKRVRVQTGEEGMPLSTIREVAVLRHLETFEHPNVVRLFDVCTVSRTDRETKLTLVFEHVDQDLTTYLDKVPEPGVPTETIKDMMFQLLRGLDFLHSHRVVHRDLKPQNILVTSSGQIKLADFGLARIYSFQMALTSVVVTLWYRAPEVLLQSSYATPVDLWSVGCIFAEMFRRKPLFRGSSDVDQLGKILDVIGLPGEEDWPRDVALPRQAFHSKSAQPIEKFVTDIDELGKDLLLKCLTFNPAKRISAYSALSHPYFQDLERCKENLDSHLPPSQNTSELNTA

One may read the IC50 as the concentration that inhibits the measured activity by half. Low readings indicate greater potency in that assay, high ones weaker potency in that assay. For `Cc1cc(-c2cnc(Nc3ccccn3)s2)nc(OC2CCCCC2)n1`, the 50% inhibitory concentration (IC50) in test [1] is above 10 µM; in test [2], 0.034 µM; in [3] it was above 10 µM; in test [4], above 10 µM; in test [5], above 10 µM; in test [6], above 10 µM.
As for `c1ccc(Nc2ncc(-c3ccnc(OC4CCCCC4)n3)s2)nc1`, the IC50 in [1] turned out to be 0.024 µM; in test [2], 0.0042 µM; in test [3], 0.014 µM; in [4], 0.0025 µM; in test [5], 0.034 µM; in [6], 0.02 µM.
Consider `Cc1cnc(OC2CCCCC2)nc1-c1cnc(Nc2ccccn2)s1`, for which the half-inhibitory concentration (IC50) is above 1 µM in test [1]; 0.013 µM in [2]; 0.27 µM in test [3]; 0.026 µM in test [4]; above 10 µM in test [5]; 0.19 µM in test [6].
In general, inhibition refers to the percentage by which the read-out fell short of the control. As a reminder, the Inhibition is the relative decrease from the control value, in per cent. A low value points to a weak effect. Regarding `Cc1cc(-c2cnc(Nc3cnc(CN4CCN(C)CC4)cn3)s2)nc(OC2CCCCC2)n1`, the inhibition in test [7] and in test [10] was above 80% throughout. In addition, the Inhibition with EOL1 [8] is listed as 99%; in the test on EOL1 [11], 91%. The same molecule yielded an Activity in the test with EOL1 [9] of 90%. This molecule registered an IC50 in [5] of 3 µM.
